# From PubChem BioAssay (NCI)
#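 How tested: cells in 96-well plates exposed to compound for 48 hours at five concentrations. GI50 marks 50% less growth. TGI: concentration producing complete growth inhibition.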
# Columns and labels:
# Experiment in all cases: inhibition of tumour cell growth, NCI panel, 48 h
# 786-0 renal = system: 786-0 renal
# A549 NSCLC = system: A549 NSCLC
# ACHN renal = system: ACHN renal
# BT-549 breast = system: BT-549 breast
# CAKI-1 renal = system: CAKI-1 renal
# COLO 205 colon = system: COLO 205 colon
# DU-145 prostate = system: DU-145 prostate
# EKVX NSCLC = system: EKVX NSCLC
# HCT-116 colon = system: HCT-116 colon
# HCT-15 colon = system: HCT-15 colon
# HL-60(TB) leukemia = system: HL-60(TB) leukemia
# HOP-62 NSCLC = system: HOP-62 NSCLC
# HOP-92 NSCLC = system: HOP-92 NSCLC
# HS 578T breast = system: HS 578T breast
# HT29 colon = system: HT29 colon
# IGROV1 ovarian = system: IGROV1 ovarian
# KM12 colon = system: KM12 colon
# LOX IMVI melanoma = system: LOX IMVI melanoma
# M14 melanoma = system: M14 melanoma
# MALME-3M melanoma = system: MALME-3M melanoma
# MCF7 breast = system: MCF7 breast
# MDA-MB-231 breast = system: MDA-MB-231 breast
# MDA-MB-435 = system: MDA-MB-435
# MOLT-4 leukemia = system: MOLT-4 leukemia
# NCI-H226 lung = system: NCI-H226 lung
# NCI-H522 lung = system: NCI-H522 lung
# OVCAR-3 ovarian = system: OVCAR-3 ovarian
# OVCAR-4 ovarian = system: OVCAR-4 ovarian
# OVCAR-5 ovarian = system: OVCAR-5 ovarian
# OVCAR-8 ovarian = system: OVCAR-8 ovarian
# PC-3 prostate = system: PC-3 prostate
# RPMI-8226 leukemia = system: RPMI-8226 leukemia
# RXF 393 renal = system: RXF 393 renal
# SF-268 CNS = system: SF-268 CNS
# SF-295 CNS = system: SF-295 CNS
# SF-539 CNS = system: SF-539 CNS
# SK-MEL-2 melanoma = system: SK-MEL-2 melanoma
# SK-MEL-28 melanoma = system: SK-MEL-28 melanoma
# SK-MEL-5 melanoma = system: SK-MEL-5 melanoma
# SK-OV-3 ovarian = system: SK-OV-3 ovarian
# SN12C renal = system: SN12C renal
# SNB-19 CNS = system: SNB-19 CNS
# SNB-75 CNS = system: SNB-75 CNS
# SR leukemia = system: SR leukemia
# TK-10 renal = system: TK-10 renal
# U251 CNS = system: U251 CNS
# UACC-257 melanoma = system: UACC-257 melanoma
# UO-31 renal = system: UO-31 renal
# A498 renal = system: A498 renal
# CCRF-CEM leukemia = system: CCRF-CEM leukemia
# HCC-2998 colon = system: HCC-2998 colon
# K-562 leukemia = system: K-562 leukemia
# NCI-H23 lung = system: NCI-H23 lung
# NCI-H460 lung = system: NCI-H460 lung
# NCI/ADR-RES ovarian = system: NCI/ADR-RES ovarian
# SW-620 colon = system: SW-620 colon
# T-47D breast = system: T-47D breast
# UACC-62 melanoma = system: UACC-62 melanoma
compound,measurement,setting,value
OC1CCN(CCCOc2c3ccc(Cl)cc3nc3c2oc2ccccc23)CC1,GI50,786-0 renal,1300 nM
same,TGI,786-0 renal,4860 nM
same,GI50,A549 NSCLC,1230 nM
same,TGI,A549 NSCLC,23200 nM
same,GI50,ACHN renal,491 nM
same,TGI,ACHN renal,11700 nM
same,GI50,BT-549 breast,2490 nM
same,TGI,BT-549 breast,7240 nM
same,GI50,CAKI-1 renal,525 nM
same,TGI,CAKI-1 renal,3350 nM
same,GI50,COLO 205 colon,661 nM
same,TGI,COLO 205 colon,2150 nM
same,GI50,DU-145 prostate,1570 nM
same,TGI,DU-145 prostate,> 100000 nM
same,GI50,EKVX NSCLC,2390 nM
same,TGI,EKVX NSCLC,8460 nM
same,GI50,HCT-116 colon,390 nM
same,TGI,HCT-116 colon,2110 nM
same,GI50,HCT-15 colon,780 nM
same,TGI,HCT-15 colon,> 100000 nM
same,GI50,HL-60(TB) leukemia,1580 nM
same,TGI,HL-60(TB) leukemia,4800 nM
same,GI50,HOP-62 NSCLC,1860 nM
same,TGI,HOP-62 NSCLC,11400 nM
same,GI50,HOP-92 NSCLC,1040 nM
same,TGI,HOP-92 NSCLC,3790 nM
same,GI50,HS 578T breast,2170 nM
same,TGI,HS 578T breast,8010 nM
same,GI50,HT29 colon,610 nM
same,TGI,HT29 colon,2270 nM
same,GI50,IGROV1 ovarian,1970 nM
same,TGI,IGROV1 ovarian,12500 nM
same,GI50,KM12 colon,1480 nM
same,TGI,KM12 colon,> 100000 nM
same,GI50,LOX IMVI melanoma,343 nM
same,TGI,LOX IMVI melanoma,1450 nM
same,GI50,M14 melanoma,1340 nM
same,TGI,M14 melanoma,3090 nM
same,GI50,MALME-3M melanoma,1490 nM
same,TGI,MALME-3M melanoma,3100 nM
same,GI50,MCF7 breast,968 nM
same,TGI,MCF7 breast,4300 nM
same,GI50,MDA-MB-231 breast,1570 nM
same,TGI,MDA-MB-231 breast,6130 nM
same,GI50,MDA-MB-435,1230 nM
same,TGI,MDA-MB-435,2570 nM
same,GI50,MOLT-4 leukemia,391 nM
same,TGI,MOLT-4 leukemia,3200 nM
same,GI50,NCI-H226 lung,1990 nM
same,TGI,NCI-H226 lung,5630 nM
same,GI50,NCI-H522 lung,1280 nM
same,TGI,NCI-H522 lung,3200 nM
same,GI50,OVCAR-3 ovarian,2200 nM
same,TGI,OVCAR-3 ovarian,> 100000 nM
same,GI50,OVCAR-4 ovarian,1390 nM
same,TGI,OVCAR-4 ovarian,5090 nM
same,GI50,OVCAR-5 ovarian,1970 nM
same,TGI,OVCAR-5 ovarian,6850 nM
same,GI50,OVCAR-8 ovarian,1130 nM
same,TGI,OVCAR-8 ovarian,13500 nM
same,GI50,PC-3 prostate,1490 nM
same,TGI,PC-3 prostate,4070 nM
same,GI50,RPMI-8226 leukemia,1590 nM
same,TGI,RPMI-8226 leukemia,4800 nM
same,GI50,RXF 393 renal,1280 nM
same,TGI,RXF 393 renal,3360 nM
same,GI50,SF-268 CNS,1490 nM
same,TGI,SF-268 CNS,> 100000 nM
same,GI50,SF-295 CNS,2080 nM
same,TGI,SF-295 CNS,11800 nM
same,GI50,SF-539 CNS,1320 nM
same,TGI,SF-539 CNS,2640 nM
same,GI50,SK-MEL-2 melanoma,1760 nM
same,TGI,SK-MEL-2 melanoma,3340 nM
same,GI50,SK-MEL-28 melanoma,1690 nM
same,TGI,SK-MEL-28 melanoma,3170 nM
same,GI50,SK-MEL-5 melanoma,1790 nM
same,TGI,SK-MEL-5 melanoma,3250 nM
same,GI50,SK-OV-3 ovarian,2420 nM
same,TGI,SK-OV-3 ovarian,10500 nM
same,GI50,SN12C renal,839 nM
same,TGI,SN12C renal,> 100000 nM
same,GI50,SNB-19 CNS,2280 nM
same,TGI,SNB-19 CNS,32600 nM
same,GI50,SNB-75 CNS,1330 nM
same,TGI,SNB-75 CNS,2700 nM
same,GI50,SR leukemia,458 nM
same,TGI,SR leukemia,3230 nM
same,GI50,TK-10 renal,2780 nM
same,TGI,TK-10 renal,7650 nM
same,GI50,U251 CNS,1090 nM
same,TGI,U251 CNS,7400 nM
same,GI50,UACC-257 melanoma,1720 nM
same,TGI,UACC-257 melanoma,3490 nM
same,GI50,UO-31 renal,517 nM
same,TGI,UO-31 renal,3100 nM
CCCn1cnc2c(c1=N)C(c1ccc(Cl)cc1)c1sc3c(C)cccc3c1O2 (centres undefined),GI50,786-0 renal,558 nM
same,TGI,786-0 renal,11200 nM
same,GI50,A498 renal,304 nM
same,TGI,A498 renal,1170 nM
same,GI50,A549 NSCLC,530 nM
same,TGI,A549 NSCLC,8740 nM
same,GI50,ACHN renal,791 nM
same,TGI,ACHN renal,14900 nM
same,GI50,BT-549 breast,1490 nM
same,TGI,BT-549 breast,6890 nM
same,GI50,CAKI-1 renal,192 nM
same,TGI,CAKI-1 renal,14900 nM
same,GI50,CCRF-CEM leukemia,380 nM
same,GI50,COLO 205 colon,386 nM
same,TGI,COLO 205 colon,1900 nM
same,GI50,DU-145 prostate,444 nM
same,TGI,DU-145 prostate,5440 nM
same,GI50,EKVX NSCLC,572 nM
same,TGI,EKVX NSCLC,19400 nM
same,GI50,HCC-2998 colon,732 nM
same,TGI,HCC-2998 colon,6100 nM
same,GI50,HCT-116 colon,410 nM
same,TGI,HCT-116 colon,2150 nM
same,GI50,HCT-15 colon,409 nM
same,TGI,HCT-15 colon,4930 nM
same,GI50,HL-60(TB) leukemia,346 nM
same,TGI,HL-60(TB) leukemia,1690 nM
same,GI50,HOP-62 NSCLC,477 nM
same,TGI,HOP-62 NSCLC,10700 nM
same,GI50,HOP-92 NSCLC,1980 nM
same,TGI,HOP-92 NSCLC,14500 nM
same,GI50,HS 578T breast,352 nM
same,TGI,HS 578T breast,5470 nM
same,GI50,HT29 colon,402 nM
same,TGI,HT29 colon,5110 nM
same,GI50,IGROV1 ovarian,464 nM
same,TGI,IGROV1 ovarian,11800 nM
same,GI50,K-562 leukemia,283 nM
same,TGI,K-562 leukemia,4200 nM
same,GI50,KM12 colon,443 nM
same,TGI,KM12 colon,11200 nM
same,GI50,LOX IMVI melanoma,701 nM
same,TGI,LOX IMVI melanoma,6730 nM
same,GI50,M14 melanoma,314 nM
same,TGI,M14 melanoma,3860 nM
same,GI50,MALME-3M melanoma,10200 nM
same,TGI,MALME-3M melanoma,25100 nM
same,GI50,MCF7 breast,339 nM
same,TGI,MCF7 breast,10800 nM
same,GI50,MDA-MB-231 breast,774 nM
same,TGI,MDA-MB-231 breast,13200 nM
same,GI50,MOLT-4 leukemia,498 nM
same,TGI,MOLT-4 leukemia,7700 nM
same,GI50,NCI-H226 lung,431 nM
same,TGI,NCI-H226 lung,4080 nM
same,GI50,NCI-H23 lung,587 nM
same,TGI,NCI-H23 lung,13100 nM
same,GI50,NCI-H460 lung,362 nM
same,TGI,NCI-H460 lung,1900 nM
same,GI50,NCI-H522 lung,387 nM
same,TGI,NCI-H522 lung,5700 nM
same,GI50,NCI/ADR-RES ovarian,316 nM
same,TGI,NCI/ADR-RES ovarian,2440 nM
same,GI50,OVCAR-3 ovarian,283 nM
same,TGI,OVCAR-3 ovarian,1050 nM
same,GI50,OVCAR-4 ovarian,1570 nM
same,TGI,OVCAR-4 ovarian,17800 nM
same,GI50,OVCAR-5 ovarian,674 nM
same,TGI,OVCAR-5 ovarian,13100 nM
same,GI50,OVCAR-8 ovarian,522 nM
same,TGI,OVCAR-8 ovarian,11400 nM
same,GI50,PC-3 prostate,454 nM
same,TGI,PC-3 prostate,14300 nM
same,GI50,RPMI-8226 leukemia,381 nM
same,TGI,RPMI-8226 leukemia,3720 nM
same,GI50,RXF 393 renal,217 nM
same,TGI,RXF 393 renal,600 nM
same,GI50,SF-268 CNS,953 nM
same,TGI,SF-268 CNS,11100 nM
same,GI50,SF-295 CNS,374 nM
same,TGI,SF-295 CNS,10500 nM
same,GI50,SF-539 CNS,316 nM
same,TGI,SF-539 CNS,1110 nM
same,GI50,SK-MEL-2 melanoma,726 nM
same,TGI,SK-MEL-2 melanoma,16000 nM
same,GI50,SK-MEL-28 melanoma,2340 nM
same,TGI,SK-MEL-28 melanoma,21900 nM
same,GI50,SK-MEL-5 melanoma,430 nM
same,TGI,SK-MEL-5 melanoma,3460 nM
same,GI50,SK-OV-3 ovarian,680 nM
same,TGI,SK-OV-3 ovarian,19700 nM
same,GI50,SN12C renal,879 nM
same,TGI,SN12C renal,13300 nM
same,GI50,SNB-19 CNS,527 nM
same,TGI,SNB-19 CNS,17600 nM
same,GI50,SNB-75 CNS,237 nM
same,TGI,SNB-75 CNS,2660 nM
same,GI50,SR leukemia,377 nM
same,TGI,SR leukemia,5990 nM
same,GI50,SW-620 colon,402 nM
same,TGI,SW-620 colon,11700 nM
same,GI50,T-47D breast,522 nM
same,TGI,T-47D breast,24300 nM
same,GI50,TK-10 renal,5690 nM
same,TGI,TK-10 renal,24000 nM
same,GI50,U251 CNS,432 nM
same,TGI,U251 CNS,11300 nM
same,GI50,UACC-257 melanoma,8900 nM
same,TGI,UACC-257 melanoma,29000 nM
same,GI50,UACC-62 melanoma,490 nM
same,TGI,UACC-62 melanoma,15000 nM
same,GI50,UO-31 renal,612 nM
same,TGI,UO-31 renal,18200 nM
